This is an account of results in patent publication US12509461B2, “Enhanced performance of amorphous solid and solubilized formulations for achieving therapeutic plasma concentrations” (BRISTOL-MYERS SQUIBB COMPANY, priority 2019, dated 2025).

A short description of series [1]: Aqueous solubility and ionization of Compound (I). The class given is physicochemical. The text has this: [drawing 2] and is referred to herein as “Compound (I)”. Compound (I), a process to prepare Compound (I), and methods of treatment employing Compound (I) are disclosed in U.S. Patent Application Publication No. 2016/0096839, which is assigned to the present assignee and incorporated herein by reference in its entirety. […] These characteristics of Compound (I) render it difficult to formulate for oral administration to achieve therapeutically effective blood levels.

A short description of series [2]: Microcentrifuge dissolution test in 0.5% SIF in PBS pH 6.5. The class given is physicochemical. The note with it: control; 1000 μg/mL if all of drug had dissolved. As to the method:
Microcentrifuge dissolution tests were performed in a 37° C. temperature-controlled box. Weighed 1 mg of sample into each of two 2.0 mL Sorenson microcentrifuge tubes. Added 1.8 mL of 0.5% SIF in phosphate buffered saline (PBS) (pH 6.5) to each tube and started the timer. Vortexed the samples for 1 minute on Setting 8 on a Fisher Vortex Genie 2. Centrifuged the samples for 1 minute at 13,000 rpm using an IEC Micromax microcentrifuge. When the timer reads 4 minutes, extracted 50 μL of supernatant from each microcentrifuge tube into a HPLC vial containing 250 μL of diluent (HPLC-grade 95:5 THF:Water). Vortexed the mixtures for 25 seconds. Repeated the steps for following time points: 10, 20, 40, and 90 minutes, and again at 20 hours.
Analyzed the samples by HPLC using the method below:
As a control, crystalline Compound (I) alone was evaluated using the same procedure. A sufficient amount of material was added so that the concentration of Compound (I) would have been 1000 μg/mL, if all of drug had dissolved.
The concentrations of Compound (I) obtained in these samples were used to determine the maximum dissolved concentration of Compound (I) in solution during the first ninety minutes of the test (MDC90), the area under the concentration-versus-time curve during the initial ninety minutes (AUC90).

Turning to `C[C@@H]1CCC[C@H](n2cnc(-c3cc(Cl)ccc3-n3cc(Cl)nn3)cc2=O)c2cc(ccn2)-c2c(cnn2C(F)F)NC1=O` [Compound (I), (9R,13S)-13-{4-[5-chloro-2-(4-chloro-1H-1,2,3-triazol-1-yl)phenyl]-6-oxo-1,6-dihydropyrimidin-1-yl}-3-(difluoromethyl)-9-methyl-3,4,7,15-tetraazatricyclo[12.3.1.0^2,6]octadeca-1(18),2(6),4,14,16-pentaen-8-one], in series [1] (physiologically relevant region), the ionization result was “non-ionizable”. The aqueous solubility result in series [1] (room temperature) was “low aqueous solubility”.
With `C[C@@H]1CCC[C@H](n2cnc(-c3cc(Cl)ccc3-n3cc(Cl)nn3)cc2=O)c2cc(ccn2)-c2c(cnn2C(F)F)NC1=O` [Crystalline API, (9R,13S)-13-{4-[5-chloro-2-(4-chloro-1H-1,2,3-triazol-1-yl)phenyl]-6-oxo-1,6-dihydropyrimidin-1-yl}-3-(difluoromethyl)-9-methyl-3,4,7,15-tetraazatricyclo[12.3.1.0^2,6]octadeca-1(18),2(6),4,14,16-pentaen-8-one], in series [2], the AUC90 came out at 1810 µg/mL and the Cmax90 is 26000 ng/mL.
